Measurements published in patent publication US11767296B2, “Heteroaryl compounds as kinase inhibitor” (FUJIAN HAIXI PHARMACEUTICALS CO., LTD, priority 2018, dated 2023).

Each compound was assayed on NFS-60 cells (assay: NFS-60 cell assay (CCK proliferation, M-CSF stimulated)). Details: Mus musculus, compound 0.5 uM, 72 h, 40 ng/mL M-CSF, read-out: inhibition ratio % (NFS-60 cell proliferation).
Type: cell-based
Experimental: Example 54: NFS-60 Cell Assay
1. Experimental Materials
Mouse Myelogenous Leukemia Cells (NFS-60)
Using DMSO to dissolve, and the required concentration was prepared with full culture medium without factors.
Penicillin-streptomycin: TRANS
Mouse M-CSF/CSF-1 Protein: Sino Biological Inc, No. 51112-MNAH
M-CSF: Qilu Pharmaceutical co., Ltd.
The logarithmic growth phase of NFS-60 cells (1640+10% FBS+40 ng/ml M-CSF+1% Penicillin-streptomycin) were centrifuged (1000 r/min) and cultured in a factor-free medium at 37° C., 5% CO2 for 24 hours. Centrifugating (1000 r/min), the culture medium was replaced by new culture medium including 40 ng/mL factors, and inoculated on 96-well plate by 2*10^4 cells/mL, 100 μL/hole. After 16 hours, the tested compounds were added 10 μL/hole, 3 duplicate holes per compound, 37° C., 5% CO2, continue to cultured for 72 h. Then 10 μL CCK reagent was added to each hole. After incubation for 4 hours, the absorbance of each hole was measured at 450 nm wavelength. According to Formula: Inhibitory rate (%)=(1-OD value of test pore/OD value of solvent control pore)×100% 3. Experimental Results The experimental results of the inhibition of NFS-60 cell proliferation by the compounds prepared in Example 3-52, 0.5 uM, are shown in the following table: […]
In the case of C[C@@H](Oc1cc(-c2cnn(C)c2)cnc1N)c1cccc(NC(=O)c2cccc(C(F)(F)F)c2)c1 [Compound 169, (R)-N-(3-(1-((2-amino-5-(1-methyl-1H-pyrazol-4-yl)pyridin-3-yl)oxy)ethyl)phenyl)-3-(trifluoromethyl)benzamide], the inhibition at 0.5 µM is reported as ≥ 50%. C[C@H](Oc1cc(Cl)cnc1N)c1cccc(NC(=O)c2cccc(C3CC3)c2)c1 [Compound 70, (S)-N-(3-(1-((2-amino-5-chloropyridin-3-yl)oxy)ethyl)-phenyl)-3-cyclopropylbenzamide] was tested, and the inhibition at 0.5 µM was ≥ 50%.

These compounds were tested against T1, CSF-1R (Homo sapiens, UniProt P07333) (assay: CSF-1R kinase assay (HTRF kinEASE TK)). Details: ATP 2.5 uM, enzyme 0.012 ng/ul, read-out: In vitro inhibitory activity of CSF-1R IC50.
T1 construct: purchased Invitrogen PV3249
T1 sequence (P07333 20-972): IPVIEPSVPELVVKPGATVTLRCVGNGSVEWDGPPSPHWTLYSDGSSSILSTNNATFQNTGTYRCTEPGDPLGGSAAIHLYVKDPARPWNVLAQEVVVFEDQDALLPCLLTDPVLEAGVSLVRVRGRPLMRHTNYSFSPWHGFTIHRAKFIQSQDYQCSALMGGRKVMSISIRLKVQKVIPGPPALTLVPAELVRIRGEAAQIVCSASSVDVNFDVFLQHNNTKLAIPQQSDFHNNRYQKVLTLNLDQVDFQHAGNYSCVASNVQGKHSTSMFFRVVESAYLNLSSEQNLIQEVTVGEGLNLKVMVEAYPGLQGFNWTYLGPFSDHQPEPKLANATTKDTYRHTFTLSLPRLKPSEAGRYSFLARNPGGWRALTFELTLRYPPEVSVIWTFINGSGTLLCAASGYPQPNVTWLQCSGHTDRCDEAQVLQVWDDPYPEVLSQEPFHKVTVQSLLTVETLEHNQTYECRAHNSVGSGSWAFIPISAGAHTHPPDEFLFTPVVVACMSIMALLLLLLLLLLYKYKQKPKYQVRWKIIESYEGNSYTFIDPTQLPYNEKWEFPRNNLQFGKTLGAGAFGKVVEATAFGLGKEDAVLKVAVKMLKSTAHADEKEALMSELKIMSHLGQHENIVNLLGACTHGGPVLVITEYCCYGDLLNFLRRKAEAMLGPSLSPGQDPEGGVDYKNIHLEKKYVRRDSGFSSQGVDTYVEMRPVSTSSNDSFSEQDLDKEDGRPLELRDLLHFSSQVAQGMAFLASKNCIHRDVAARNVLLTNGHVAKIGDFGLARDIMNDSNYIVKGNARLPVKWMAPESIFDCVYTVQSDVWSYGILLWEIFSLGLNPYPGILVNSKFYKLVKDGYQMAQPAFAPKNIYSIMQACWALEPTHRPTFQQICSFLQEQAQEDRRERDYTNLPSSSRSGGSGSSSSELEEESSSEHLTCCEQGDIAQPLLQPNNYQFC
Type: biochemical
Experimental: Example 53: CSF-1R Kinase Assay
I. Materials and Instruments
• 2104 EnVision® Multilabel Reader (PerkinElmer) • OptiPlate-384, White Opaque 384-well MicroPlate (Cat.6007290, PerkinElmer) • HTRF kinEASE TK (Cat.62TKOPEC, Cisbio) • CSF-1R(Cat. PV3249, Invitrogen) • ATP 10 mM (Cat. PV3227, Invitrogen) • DTT 1 M (Cat. D5545, Sigma) • MgCl2 1 M (Cat. M8266, Sigma) • MnCl2 1 M (Cat.244589. Sigma)
II. Experimental Procedure
Substrate-TK and ATP were diluted to 5 times of the reaction concentration by 1×Kinase Buffer. CSF1R enzyme was diluted to 5×enzyme solution by 1×kinase buffer. Sa-XL665 was diluted to 4×Sa-XL665 solution by Detection Buffer. 100×TK-Ab-Cryptate Solution TK-Ab-Cryptate was diluted to 100×TK-Ab-Cryptate solution by Detection Buffer. 2. Experimental Procedure After all reagents had been prepared according to the above method, except enzymes, the sample was added after equilibrium to room temperature. • a. Firstly, 2.5% DMSO solution was prepared by using 1×kinase buffer (the high concentration of DMSO will affect the reaction and control the final concentration of DMSO to 1%). Then the compounds were diluted by 2.5% DMSO solution corresponding to the enzyme. The screening concentration of the compounds was 4 times gradient dilution from 1000 nM, and 8 concentrations. In addition to the control pore, 4 microlitres of diluted solution containing 2.5% DMSO were added to the reaction pore and 4 microlitres of previously prepared solution containing 2.5% DMSO were added to the control pore. • b. 2 microlitres of previously prepared TK-biotin substrate solution was added to all reaction pore (the amount of substrate used for enzyme screening is shown in Table 15). • c. Adding 2 microlitres of CSF1R enzyme solution of corresponding concentration (the amount of enzyme is shown in Table 15) to all reaction pore except negative pore. The negative pore is supplemented with 2 microlitres of enzyme corresponding to 1 xkinase buffer. After mixing, the compound and enzyme can be fully combined by incubating at room temperature for 10 minutes. • d. Enzyme reaction was initiated by adding 2 microlitres ATP solution of corresponding concentration to all reaction pore. The reaction time was 30 minutes (the corresponding ATP concentration and reaction time at enzyme screening were shown in Table 15). • e. Preparing the test solution 5 minutes before the end of kinase reaction. Streptavidin-XL665 and TK antibody europium cryptate (1:100) were prepared with detection buffer in the kit (the corresponding concentration of detection reagent for enzyme screening is shown in Table 15). • f. After the kinase reaction, 5 microlitres of diluted Streptavidin-XL665 were added to all reaction pore, mixing, and then the diluted TK antibody europium cryptate solution was added immediately. • g. After 1 hour reaction at room temperature, the fluorescence signals (320 nm stimulation, 665 nm, 615 nm emission) were detected by ENVISION (Perkinelmer) instrument. The inhibition rate of each pore was calculated by full active pore and background signal pore, and the average value of complex pore was obtained. Meanwhile, the half inhibitory activity (IC50) of each compound was fitted by professional drawing analysis software PRISM 5.0. The Flow Chart of the Experiment is as Follows:
3. Data Analysis Emission Ratio (ER)=665 nm Emission signal/615 nm Emission signal Inhibitory rate=(ERpositive−ERsample)/(ERpositive−ERnegative)*100% Using Graphpad Prism 5 and log (inhibitor) vs. normalized response to fit IC50 curve and calculate IC50 value. The IC50 data of the compounds prepared in Representative Examples 3-52 are as follows (Table 18): […]
C[C@@H](Oc1cncc(Cl)n1)c1cccc(NC(=O)c2cccc(C(F)(F)F)c2)c1 [Compound 327, (R)—N-(3-(1-((6-chloropyrazin-2-yl)oxy)ethyl)phenyl)-3-(trifluoromethyl)benzamide] was tested, and the IC50 was 51 to 500 nM. For C[C@@H](Oc1cc(-c2cnn(C)c2)cnc1N)c1cccc(NC(=O)c2cccc(C3CC3)c2)c1 [Compound 174, (R)-N-(3-(1-((2-amino-5-(1-methyl-1H-pyrazol-4-yl)pyridin-3-yl)oxy)ethyl)phenyl)-cyclopropylbenzamide], the IC50 was ≤ 50 nM. In the case of Cc1cccc(C(=O)Nc2ccc(Cl)c([C@@H](C)Oc3cc(Cl)cnc3N)c2)c1Cl [Compound 95, (R)-N-(3-(1-((2-amino-5-chloropyridin-3-yl)oxy)ethyl)-4-chlorophenyl)-2-chloro-3-methylbenzamide], the IC50 is reported as 51 to 500 nM. Nc1ncc(Cl)cc1OCc1cccc(NC(=O)c2cccc(Cl)c2)c1 [Compound 22, N-(3-(((2-amino-5-chloropyridin-3-yl)oxy)methyl)phenyl)-3-chloro-benzamide] was tested, and the IC50 was ≤ 50 nM. With Cc1ccc(Cl)c(C(=O)Nc2cccc([C@@H](C)Oc3cc(Cl)cnc3N)c2)c1 [Compound 73, (R)-N-(3-(1-((2-amino-5-chloropyridin-3-yl)oxy)ethyl)-phenyl)-2-chloro-5-methylbenzamide] the IC50 was ≤ 50 nM. Cn1cc(-c2cnc(N)c(Oc3cccc(NC(=O)Nc4ccc(Cl)c(C(F)(F)F)c4)c3)c2)cn1 [Compound 348, 1-(3-((2-amino-5-(1-methyl-1H-pyrazol-4-yl)pyridin-3-yl)oxy)phenyl)-3-(4-chloro-3-(trifluoromethyl)phenyl)urea] was tested, and the IC50 was ≤ 50 nM. With Cc1cccc(C(=O)Nc2cccc([C@@H](C)Oc3cc(Cl)cnc3N)n2)c1 [Compound 141, (R)-N-(6-(1-((2-amino-5-chloropyridin-3-yl)oxy)ethyl)-pyridin-2-yl)-3-methylbenzamide] the IC50 was 51 to 500 nM. Work on COc1cccc(C(=O)Nc2cc(C(C)Oc3cc(Cl)cnc3N)ccc2F)c1 (stereo not drawn) [Compound 318, N-(5-(1-((2-amino-5-chloropyridin-3-yl)oxy)ethyl)-2-fluorophenyl)-3-methoxybenzamide] yielded an IC50 of 51 to 500 nM. Cc1cccc(C(=O)Nc2cccc(Oc3cc(Cl)cnc3N)c2)c1 [Compound 305, N-(3-((2-amino-5-chloropyridin-3-yl)oxy)phenyl)-3-methyl-benzamide] showed an IC50 of 51 to 500 nM. Work on Cc1cccc(NC(=O)c2cccc([C@H](C)Oc3cc(Cl)cnc3N)c2)c1 [Compound 222, (S)-3-(1-((2-amino-5-chloropyridin-3-yl)oxy)ethyl)-N-(m-tolyl)benzamide] yielded an IC50 of 51 to 500 nM. Compound C[C@@H](Oc1cc(Cl)cnc1N)c1cccc(NC(=O)c2cccc(CN3CCN(C)CC3)c2)c1 [Compound 103, (R)-N-(3-(1-((2-amino-5-chloropyridin-3-yl)oxy)ethyl)-phenyl)-3-((4-methylpiperazin-1-yl)methyl)benzamide] has an IC50 of 500 to 10000 nM. C[C@@H](Oc1cc(-c2cnn(C)c2)cnc1N)c1cccc(NC(=O)c2ccc3c(c2)CCC3)c1 [Compound 188, (R)-N-(3-(1-((2-amino-5-(1-methyl-1H-pyrazol-4-yl)pyridin-3-yl)oxy)ethyl)phenyl)-2,3-dihydro-1H-indene-5-carboxamide] was tested, and the IC50 was ≤ 50 nM. With CNc1ncc(Cl)cc1OCc1cccc(NC(=O)c2cccc(C)c2)c1 [Compound 236, N-(3-(((5-chloro-2-(methylamino)pyridin-3-yl)oxy)methyl)phenyl)-3-methylbenzamide] the IC50 was 51 to 500 nM. For Cc1cccc(C(=O)Nc2cccc([C@@H](C)Oc3cc(-c4cccnc4)cnc3N)c2)c1 [Compound 202, (R)-N-(3-(1-((6-amino-[3,3′-bipyridin]-5-yl)oxy)ethyl)phenyl)-3-methylbenzamide], the IC50 was ≤ 50 nM. For C[C@H](Oc1cc(Cl)cnc1N)c1cccc(NC(=O)c2cccc(Cl)c2)c1 [Compound 55, (S)-N-(3-(1-((2-amino-5-chloropyridin-3-yl)oxy)ethyl)-phenyl)-3-chlorobenzamide], the IC50 was ≤ 50 nM. For Cc1cc(C)cc(C(=O)Nc2cccc([C@@H](C)Oc3cc(-c4cnn(C)c4)cnc3N)c2)c1 [Compound 171, (R)-N-(3-(1-((2-amino-5-(1-methyl-1H-pyrazol-4-yl)pyridin-3-yl)oxy)ethyl)phenyl)-3,5-dimethyl benzamide], the IC50 was ≤ 50 nM. For CC(C)c1cccc(C(=O)Nc2cccc([C@@H](C)Oc3cc(-c4cnn(C)c4)cnc3N)c2)c1 [Compound 187, (R)-N-(3-(1-((2-amino-5-(1-methyl-1H-pyrazol-4-yl)pyridin-3-yl)oxy)ethyl)phenyl)-3-isopropylbenzamide], the IC50 was ≤ 50 nM. Work on Cc1cccc(C(=O)Nc2cccc([C@@H](C)Oc3cncc(Cl)c3)c2)c1 [Compound 323, (R)—N-(3-(1-((5-chloropyridin-3-yl)oxy)ethyl)phenyl)-3-methylbenzamide] yielded an IC50 of 51 to 500 nM. For C[C@@H](Oc1cc(-c2cnn(C)c2)cnc1N)c1cccc(NC(=O)c2ccc(C(F)(F)F)c(S(C)(=O)=O)c2)c1 [Compound 175, (R)-N-(3-(1-((2-amino-5-(1-methyl-1H-pyrazol-4-yl)pyridin-3-yl)oxy)ethyl)phenyl)-3-(methylsulfonyl)-4-(trifluoromethyl)benzamide], the IC50 was ≤ 50 nM. Cc1cccc(NC(=O)Nc2cccc(Oc3cc(Cl)cnc3N)c2)c1 [Compound 331, 1-(3-((2-amino-5-chloropyridin-3-yl)oxy)phenyl)-3-(m-tolyl)urea] was tested, and the IC50 was 51 to 500 nM. With Cc1ccc(C(=O)Nc2cccc([C@@H](C)Oc3cc(-c4cnn(C)c4)cnc3N)c2)cc1C [Compound 170, (R)-N-(3-(1-((2-amino-5-(1-methyl-1H-pyrazol-4-yl)pyridin-3-yl)oxy)ethyl)phenyl)-3,4-dimethyl benzamide] the IC50 was ≤ 50 nM. With Cc1cccc(C(=O)Nc2cccc([C@H](C)Oc3cc(Cl)cnc3N)c2)c1Cl [Compound 64, (S)-N-(3-(1-((2-amino-5-chloropyridin-3-yl)oxy)ethyl)-phenyl)-2-chloro-3-methylbenzamide] the IC50 was ≤ 50 nM.
